This passage reports IC50 results from BindingDB's records for doi:10.1016/j.ejmech.2019.01.048 (University of Berne, 2019).

The target in the assay is Transient receptor potential cation channel subfamily M member 4 (Homo sapiens, UniProt Q8TD43). Briefly: Inhibition of TRPM4 (unknown origin).

Molecules are shown by their SMILES.

Chain of Transient receptor potential cation channel subfamily M member 4 (Q8TD43 whole entry): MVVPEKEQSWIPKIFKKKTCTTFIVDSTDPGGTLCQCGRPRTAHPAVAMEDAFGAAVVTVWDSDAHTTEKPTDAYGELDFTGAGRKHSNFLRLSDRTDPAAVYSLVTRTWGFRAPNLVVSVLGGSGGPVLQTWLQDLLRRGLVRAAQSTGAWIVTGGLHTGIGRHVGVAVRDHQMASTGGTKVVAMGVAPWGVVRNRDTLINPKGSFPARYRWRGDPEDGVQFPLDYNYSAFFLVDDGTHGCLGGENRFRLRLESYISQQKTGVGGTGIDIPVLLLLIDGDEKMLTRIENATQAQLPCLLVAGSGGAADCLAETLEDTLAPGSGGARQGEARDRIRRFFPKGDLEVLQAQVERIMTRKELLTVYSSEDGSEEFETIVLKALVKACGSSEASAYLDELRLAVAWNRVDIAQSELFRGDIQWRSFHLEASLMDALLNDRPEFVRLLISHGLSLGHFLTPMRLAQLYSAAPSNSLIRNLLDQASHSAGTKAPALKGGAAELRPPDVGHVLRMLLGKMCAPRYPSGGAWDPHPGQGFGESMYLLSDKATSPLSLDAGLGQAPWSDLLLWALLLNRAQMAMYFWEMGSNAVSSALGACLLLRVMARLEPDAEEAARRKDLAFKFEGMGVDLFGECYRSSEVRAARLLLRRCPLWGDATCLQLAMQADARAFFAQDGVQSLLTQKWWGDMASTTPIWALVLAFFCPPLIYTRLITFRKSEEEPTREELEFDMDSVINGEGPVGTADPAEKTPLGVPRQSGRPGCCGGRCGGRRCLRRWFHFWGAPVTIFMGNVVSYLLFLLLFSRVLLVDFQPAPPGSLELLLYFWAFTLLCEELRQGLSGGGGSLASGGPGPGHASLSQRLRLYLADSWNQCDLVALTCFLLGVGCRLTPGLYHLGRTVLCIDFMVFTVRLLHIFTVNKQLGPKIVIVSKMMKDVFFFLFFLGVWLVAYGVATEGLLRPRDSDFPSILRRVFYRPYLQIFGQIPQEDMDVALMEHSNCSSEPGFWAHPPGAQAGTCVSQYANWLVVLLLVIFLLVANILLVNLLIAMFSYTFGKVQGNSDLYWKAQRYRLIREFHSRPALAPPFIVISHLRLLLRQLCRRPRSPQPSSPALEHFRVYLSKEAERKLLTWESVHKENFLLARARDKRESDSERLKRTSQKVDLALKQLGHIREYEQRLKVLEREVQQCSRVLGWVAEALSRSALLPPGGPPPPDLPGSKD

For the molecule `Oc1cc2ccccc2c2ccccc12`, the IC50 (in general, the concentration that inhibits the measured activity by half) was 29 µM.
